Measured values published in patent US12595230B2, “Substituted 6,7-dihydro-5H-benzo[7]annulene compounds and their derivatives, processes for their preparation and therapeutic uses thereof” (Sanofi, priority 2020, dated 2026).
pIC50: −log10 of the molar value.

Biological target: T1, ERα (Homo sapiens, UniProt P03372)
T1 construct: host or cells: MCF7
T1 sequence (P03372 1-595): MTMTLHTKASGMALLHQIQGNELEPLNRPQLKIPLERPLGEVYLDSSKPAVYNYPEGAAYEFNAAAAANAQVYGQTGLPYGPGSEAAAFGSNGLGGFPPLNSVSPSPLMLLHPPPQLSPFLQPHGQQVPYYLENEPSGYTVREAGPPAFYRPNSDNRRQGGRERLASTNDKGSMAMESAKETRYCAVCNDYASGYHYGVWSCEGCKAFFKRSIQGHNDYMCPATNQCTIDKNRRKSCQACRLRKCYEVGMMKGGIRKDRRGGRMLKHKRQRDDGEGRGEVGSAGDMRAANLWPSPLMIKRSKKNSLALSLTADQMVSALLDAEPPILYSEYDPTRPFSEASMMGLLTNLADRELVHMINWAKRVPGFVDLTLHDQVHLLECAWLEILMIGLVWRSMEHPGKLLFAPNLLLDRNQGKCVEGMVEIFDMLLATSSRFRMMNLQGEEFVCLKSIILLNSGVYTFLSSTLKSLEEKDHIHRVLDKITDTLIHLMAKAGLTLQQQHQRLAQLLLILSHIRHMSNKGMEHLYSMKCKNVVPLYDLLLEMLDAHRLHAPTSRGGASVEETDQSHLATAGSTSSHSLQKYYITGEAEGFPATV
Test: Estrogen receptor degradation activity: breast cancer cell ERα in cell western assay (MCF7 cells)
Assay type: cell-based
Conditions: for % Degradation At 0.3 μM: 4 hours, relative to fulvestrant 0.1 μM positive control; for DC50 / pIC50: 4 hours post compound addition, concentration which degrades 50% of the estrogen receptor; for DC50: read-out: Degradation IC50
Procedure, shortened: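 Compounds were applied to MCF7 cells in stripped-serum, phenol red-free medium for 4 h at final 0.3–0.0000018 μM, with fulvestrant (0.1 μM) as control. Value: IC50 (nM) for 50% ERα degradation.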

Row | Structure (SMILES) | % Degradation At 0.3 μM [%] | DC50 [nM] | pIC50
1 | COc1ccc(C2=C(c3ccc(CC4CN(CCCF)C4)cc3)c3ccc(C(=O)O)cc3CCC2)c(F)c1 [Example 16, 8-(2-fluoro-4-methoxyphenyl)-9-(4-((1-(3-fluoropropyl)azetidin-3-yl)methyl)phenyl)-6,7-dihydro-5H-benzo[7]annulene-3-carboxylic acid] | 94 | 0.4 | 
2 | Cl.O=C(O)c1ccc2c(c1)CCCC(c1cccc3c1CCC3(F)F)=C2c1ccc(CC2CN(CCCF)C2)cc1 [Example 54, 8-(1,1-difluoro-2,3-dihydro-1H-inden-4-yl)-9-(4-((1-(3-fluoropropyl)azetidin-3-yl)methyl)phenyl)-6,7-dihydro-5H-benzo[7]annulene-3-carboxylic acid hydrochloride] | 94 | 0.6 | 
3 | Cl.O=C(O)c1ccc2c(c1)CCCC(c1ccc(Cl)cc1Cl)=C2c1ccc(CC2CN(CCCF)C2)cc1F [Example 47, 8-(2,4-dichlorophenyl)-9-(2-fluoro-4-((1-(3-fluoropropyl)azetidin-3-yl)methyl)phenyl)-6,7-dihydro-5H-benzo[7]annulene-3-carboxylic acid] | 93 | 0.4 | 
4 | O=C(O)c1ccc2c(c1)CCCC(c1ccccc1CC(F)(F)F)=C2c1ccc(CC2CN(CCCF)C2)cc1 [Example 301, 9-(4-((1-(3-fluoropropyl)azetidin-3-yl)methyl)phenyl)-8-(2-(2,2,2-trifluoroethyl)phenyl)-6,7-dihydro-5H-benzo[7]annulene-3-carboxylic acid] | 89 | 0.5 | 
5 | COc1cc(C2=C(c3ccc(CC4CN(CCCF)C4)cc3)c3ccc(C(=O)O)cc3CCC2)ccn1 [Example 21, 9-(4-((1-(3-fluoropropyl)azetidin-3-yl)methyl)phenyl)-8-(2-methoxypyridin-4-yl)-6,7-dihydro-5H-benzo[7]annulene-3-carboxylic acid] | 89 | 2.1 | 
6 | O=C(O)c1ccc2c(c1)CCCC(c1ccc(F)cc1C(F)(F)F)=C2c1ccc(CC2CN(CCCF)C2)cc1 [Example 26, 8-(4-fluoro-2-(trifluoromethyl)phenyl)-9-(4-((1-(3-fluoropropyl)azetidin-3-yl)methyl)phenyl)-6,7-dihydro-5H-benzo[7]annulene-3-carboxylic acid] | 92 | 0.3 | 
7 | CCOC(c1ccc(C2=C(c3ccc(Cl)cc3Cl)CCCc3cc(C(=O)O)ccc32)cc1)C1CN(CCCF)C1 (single isomer, unassigned; isomer 1) [Example 229, 8-(2,4-dichlorophenyl)-9-(4-(ethoxy(1-(3-fluoropropyl)azetidin-3-yl)methyl)phenyl)-6,7-dihydro-5H-benzo[7]annulene-3-carboxylic Acid Isomer 1] | 77 | 0.6 | 
8 | Cc1c(Cl)cccc1C1=C(c2ccc(CC3CN(CCCF)C3)cc2)c2ccc(C(=O)O)cc2CCC1.Cl [Example 212, 8-(3-chloro-2-methylphenyl)-9-(4-((1-(3-fluoropropyl)azetidin-3-yl)methyl)phenyl)-6,7-dihydro-5H-benzo[7]annulene-3-carboxylic acid hydrochloride] | 87 |  | 10.00
9 | Cc1c(C2=C(c3ccc(CC4CN(CCC(F)F)C4)cc3)c3ccc(C(=O)O)cc3CCC2)cccc1C(F)(F)F [Example 287, 9-(4-((1-(3,3-difluoropropyl)azetidin-3-yl)methyl)phenyl)-8-(2-methyl-3-(trifluoromethyl)phenyl)-6,7-dihydro-5H-benzo[7]annulene-3-carboxylic acid] | 86 | 0.4 | 
10 | O=C([O-])c1ccc2c(c1)OCCC(c1ccc(F)cc1Cl)=C2c1ccc(CC2CN(CCCF)C2)cc1.[Na+] [Example 264, sodium 4-(2-chloro-4-fluorophenyl)-5-(4-((1-(3-fluoropropyl)azetidin-3-yl)methyl)phenyl)-2,3-dihydrobenzo[b]oxepine-8-carboxylate] | 95 | 1.1 | 
11 | O=C(O)c1ccc2c(c1)CCCC(c1ncc(Cl)cc1C(F)(F)F)=C2c1ccc(CC2CN(CCC(F)F)C2)cc1 [Example 291, 8-(5-chloro-3-(trifluoromethyl)pyridin-2-yl)-9-(4-((1-(3,3-difluoropropyl)azetidin-3-yl)methyl)phenyl)-6,7-dihydro-5H-benzo[7]annulene-3-carboxylic acid] | 84 | 0.8 | 
12 | O=C(O)c1ccc2c(c1)CCCC(c1ncc(Cl)cc1Cl)=C2c1ccc(CC2CN(CCCF)C2)cc1 [Example 234, 8-(3,5-dichloropyridin-2-yl)-9-(4-((1-(3-fluoropropyl)azetidin-3-yl)methyl)phenyl)-6,7-dihydro-5H-benzo[7]annulene-3-carboxylic acid] | 84 | 1.3 | 
13 | O=C(O)c1ccc2c(c1)CCCC(c1ccc(Cl)cc1Cl)=C2c1ccc(CC2(O)CN(CCCF)C2)cc1 [Example 233, 8-(2,4-dichlorophenyl)-9-(4-((1-(3-fluoropropyl)-3-hydroxyazetidin-3-yl)methyl)phenyl)-6,7-dihydro-5H-benzo[7]annulene-3-carboxylic acid] | 85 | 0.5 | 
14 | CCC1CCc2cc(C(=O)O)ccc2C(c2ccc(CC3CN(CCCF)C3)cc2)=C1c1ccc(Cl)cc1 (single isomer, unassigned) [Example 330, 8-(4-chlorophenyl)-7-ethyl-9-(4-((1-(3-fluoropropyl)azetidin-3-yl)methyl)phenyl)-6,7-dihydro-5H-benzo[7]annulene-3-carboxylic acid] | 91 | 7 | 
15 | O=C(O)c1ccc2c(c1)CCCC(Cc1ccccc1)=C2c1ccc(CC2CN(CCCF)C2)cc1 [Example 311, 8-benzyl-9-(4-((1-(3-fluoropropyl)azetidin-3-yl)methyl)phenyl)-6,7-dihydro-5H-benzo[7]annulene-3-carboxylic acid] | 73 | 9 | 
16 | O=C(O)c1ccc2c(c1)CCCC(c1ccc(Cl)cc1Cl)=C2c1ccc(CC2(F)CN(CCCF)C2)cc1 [Example 46, 8-(2,4-dichlorophenyl)-9-(4-((3-fluoro-1-(3-fluoropropyl)azetidin-3-yl)methyl)phenyl)-6,7-dihydro-5H-benzo[7]annulene-3-carboxylic acid] | 88 | 0.6 | 
17 | O=C(O)c1ccc2c(c1)CCCC(c1ncc(Cl)cc1F)=C2c1ccc(CC2CN(CCCF)C2)cc1 [Example 219, 8-(5-chloro-3-fluoropyridin-2-yl)-9-(4-((1-(3-fluoropropyl)azetidin-3-yl)methyl)phenyl)-6,7-dihydro-5H-benzo[7]annulene-3-carboxylic acid] | 92 | 6.5 | 
18 | CC1CCc2cc(C(=O)O)ccc2C(c2ccc(CC3CN(CCCF)C3)cc2)=C1c1ccc(Cl)cc1Cl (single isomer, unassigned) [Example 302, 8-(2,4-dichlorophenyl)-9-(4-((1-(3-fluoropropyl)azetidin-3-yl)methyl)phenyl)-7-methyl-6,7-dihydro-5H-benzo[7]annulene-3-carboxylic acid] | 90 | 0.6 | 
19 | O=C(O)c1ccc2c(c1)CCCC(CC1CCC1)=C2c1ccc(CC2CN(CCCF)C2)cc1 [Example 294, 8-(cyclobutylmethyl)-9-(4-((1-(3-fluoropropyl)azetidin-3-yl)methyl)phenyl)-6,7-dihydro-5H-benzo[7]annulene-3-carboxylic acid] | 92 |  | 9.70
20 | CCOC(c1ccc(C2=C(c3ccc(Cl)cc3Cl)CCCc3cc(C(=O)O)ccc32)cc1)C1CN(CCCF)C1 (single isomer, unassigned; isomer 2) [Example 230, 8-(2,4-dichlorophenyl)-9-(4-(ethoxy(1-(3-fluoropropyl)azetidin-3-yl)methyl)phenyl)-6,7-dihydro-5H-benzo[7]annulene-3-carboxylic Acid Isomer 2] | 78 | 0.7 | 
21 | COc1c(C(=O)O)ccc2c1CCCC(c1ccc(Cl)cc1Cl)=C2c1ccc(CC2CN(CCCF)C2)cc1 [Example 271, 8-(2,4-dichlorophenyl)-9-(4-((1-(3-fluoropropyl)azetidin-3-yl)methyl)phenyl)-4-methoxy-6,7-dihydro-5H-benzo[7]annulene-3-carboxylic acid] | 83 | 16.2 | 
22 | Cc1cc(CC2CN(CCCF)C2)ccc1C1=C(c2ccc(Cl)cc2Cl)CCCc2cc(C(=O)O)ccc21 [Example 240, 8-(2,4-dichlorophenyl)-9-(4-((1-(3-fluoropropyl)azetidin-3-yl)methyl)-2-methylphenyl)-6,7-dihydro-5H-benzo[7]annulene-3-carboxylic acid] | 85 | 0.5 | 
23 | Cl.O=C(O)c1ccc2c(c1)OCCC(c1ccccc1Cl)=C2c1ccc(CC2CN(CCCF)C2)cc1 [Example 49, 4-(2-chlorophenyl)-5-(4-((1-(3-fluoropropyl)azetidin-3-yl)methyl)phenyl)-2,3-dihydrobenzo[b]oxepine-8-carboxylic acid] | 82 | 3.4 | 
